From patent US7785828B1 (priority 2003, dated 2010)

Assays:
Format in all cases: cell-based
Mycosphaerella fijiensis = tested on: Mycosphaerella fijiensis
Septoria tritici = tested on: Septoria tritici
Fusarium graminearum = tested on: Fusarium graminearum

Sequence	Antifungal activity, Mycosphaerella fijiensis (improvement compared to DmAMP1) (Mycosphaerella fijiensis)	Antifungal activity, Septoria tritici (improvement compared to DmAMP1) (Septoria tritici)	Antifungal activity, Fusarium graminearum (improvement compared to DmAMP1) (Fusarium graminearum)
DGVKLCERPSKTWSGNCGNTKHCDKQCKNWEKAKHGACHVRNGKWKCFCYFNC (Defensin like) [L7-112]	+ (key: + indicating 1- to 5-fold improvement compared to DmAMP1; ++ indicating >5- to 10-fold improvement; +++ indicating >10-fold improvement)	+ (key: + indicating 1- to 5-fold improvement compared to DmAMP1; ++ indicating >5- to 10-fold improvement; +++ indicating >10-fold improvement)	+ (key: + indicating 1- to 5-fold improvement compared to DmAMP1; ++ indicating >5- to 10-fold improvement; +++ indicating >10-fold improvement)
NLCERASKTWTGNCGNTKHCDNQCRNWEGAAHGACHVRSGKHKCFCYFNC (Defensin like) [L6-85]	+ (key: + indicating 1- to 5-fold improvement compared to DmAMP1; ++ indicating >5- to 10-fold improvement; +++ indicating >10-fold improvement)	+ (key: + indicating 1- to 5-fold improvement compared to DmAMP1; ++ indicating >5- to 10-fold improvement; +++ indicating >10-fold improvement)	+++ (key: + indicating 1- to 5-fold improvement compared to DmAMP1; ++ indicating >5- to 10-fold improvement; +++ indicating >10-fold improvement)
NLCEKASKTWSGNCGNTKHCDTQCKSWEGAKHGACHVRNGKHKCFCYFNC (Defensin like) [L5-13]	+ (key: + indicating 1- to 5-fold improvement compared to DmAMP1; ++ indicating >5- to 10-fold improvement; +++ indicating >10-fold improvement)	+++ (key: + indicating 1- to 5-fold improvement compared to DmAMP1; ++ indicating >5- to 10-fold improvement; +++ indicating >10-fold improvement)	+++ (key: + indicating 1- to 5-fold improvement compared to DmAMP1; ++ indicating >5- to 10-fold improvement; +++ indicating >10-fold improvement)
DGVKLCEKASQTWSGNCGNTKHCDTQCRNWEGAKHGACHKRNGKWKCFCYFNC (Defensin like) [L7-174]	+ (key: + indicating 1- to 5-fold improvement compared to DmAMP1; ++ indicating >5- to 10-fold improvement; +++ indicating >10-fold improvement)	++ (key: + indicating 1- to 5-fold improvement compared to DmAMP1; ++ indicating >5- to 10-fold improvement; +++ indicating >10-fold improvement)	+++ (key: + indicating 1- to 5-fold improvement compared to DmAMP1; ++ indicating >5- to 10-fold improvement; +++ indicating >10-fold improvement)
NLCERASKTWSGNCGNTKHCDTQCKSWEGAKHGACHVRNGKHKCFCYFNC (Defensin like) [L9-26]	++ (key: + indicating 1- to 5-fold improvement compared to DmAMP1; ++ indicating >5- to 10-fold improvement; +++ indicating >10-fold improvement)	+++ (key: + indicating 1- to 5-fold improvement compared to DmAMP1; ++ indicating >5- to 10-fold improvement; +++ indicating >10-fold improvement)	+++ (key: + indicating 1- to 5-fold improvement compared to DmAMP1; ++ indicating >5- to 10-fold improvement; +++ indicating >10-fold improvement)
NLCERASKTWSGNCGNTKHCDNQCRNWEGAKHGACHVRNGKWKCFCYFNC [L6-40] (Defensin like)	+ (key: + indicating 1- to 5-fold improvement compared to DmAMP1; ++ indicating >5- to 10-fold improvement; +++ indicating >10-fold improvement)	+++ (key: + indicating 1- to 5-fold improvement compared to DmAMP1; ++ indicating >5- to 10-fold improvement; +++ indicating >10-fold improvement)	+++ (key: + indicating 1- to 5-fold improvement compared to DmAMP1; ++ indicating >5- to 10-fold improvement; +++ indicating >10-fold improvement)
NLCERASKTWSGNCGNTKHCDTQCRNWEGAAHGACHKRNGKWKCFCYFNC (Defensin like) [L6-12]	+ (key: + indicating 1- to 5-fold improvement compared to DmAMP1; ++ indicating >5- to 10-fold improvement; +++ indicating >10-fold improvement)	+ (key: + indicating 1- to 5-fold improvement compared to DmAMP1; ++ indicating >5- to 10-fold improvement; +++ indicating >10-fold improvement)	+++ (key: + indicating 1- to 5-fold improvement compared to DmAMP1; ++ indicating >5- to 10-fold improvement; +++ indicating >10-fold improvement)
NLCEKASKTWTGNCGNTKHCDTQCRNWEGAKHGACHKRNGKWKCFCYFNC (Defensin like) [L6-32]	+++ (key: + indicating 1- to 5-fold improvement compared to DmAMP1; ++ indicating >5- to 10-fold improvement; +++ indicating >10-fold improvement)	+++ (key: + indicating 1- to 5-fold improvement compared to DmAMP1; ++ indicating >5- to 10-fold improvement; +++ indicating >10-fold improvement)	+++ (key: + indicating 1- to 5-fold improvement compared to DmAMP1; ++ indicating >5- to 10-fold improvement; +++ indicating >10-fold improvement)
NLCEKASKTWTGNCGNTKHCDTQCKSWEGAKHGACHKRNGKWKCFCYFNC (Defensin like) [L5-22]	+ (key: + indicating 1- to 5-fold improvement compared to DmAMP1; ++ indicating >5- to 10-fold improvement; +++ indicating >10-fold improvement)	++ (key: + indicating 1- to 5-fold improvement compared to DmAMP1; ++ indicating >5- to 10-fold improvement; +++ indicating >10-fold improvement)	++ (key: + indicating 1- to 5-fold improvement compared to DmAMP1; ++ indicating >5- to 10-fold improvement; +++ indicating >10-fold improvement)
DGVKLCERASQTWTGHCGNTKHCDNQCRSWEGAAHGACHKRSGKWKCFCYFNC (Defensin like) [L7-82]	+++ (key: + indicating 1- to 5-fold improvement compared to DmAMP1; ++ indicating >5- to 10-fold improvement; +++ indicating >10-fold improvement)	+ (key: + indicating 1- to 5-fold improvement compared to DmAMP1; ++ indicating >5- to 10-fold improvement; +++ indicating >10-fold improvement)	++ (key: + indicating 1- to 5-fold improvement compared to DmAMP1; ++ indicating >5- to 10-fold improvement; +++ indicating >10-fold improvement)
NLCERASKTWSGNCGNTKHCDNQCRNWEGAKHGACHKRSGKWKCFCYFNC (Defensin like) [L9-30]	+ (key: + indicating 1- to 5-fold improvement compared to DmAMP1; ++ indicating >5- to 10-fold improvement; +++ indicating >10-fold improvement)	+ (key: + indicating 1- to 5-fold improvement compared to DmAMP1; ++ indicating >5- to 10-fold improvement; +++ indicating >10-fold improvement)	++ (key: + indicating 1- to 5-fold improvement compared to DmAMP1; ++ indicating >5- to 10-fold improvement; +++ indicating >10-fold improvement)
NLCERASKTWSGNCGNTKHCDNQCRSWEGAKHGACHVRSGKHKCFCYFNC (Defensin like) [L9-16]	+ (key: + indicating 1- to 5-fold improvement compared to DmAMP1; ++ indicating >5- to 10-fold improvement; +++ indicating >10-fold improvement)	++ (key: + indicating 1- to 5-fold improvement compared to DmAMP1; ++ indicating >5- to 10-fold improvement; +++ indicating >10-fold improvement)	+++ (key: + indicating 1- to 5-fold improvement compared to DmAMP1; ++ indicating >5- to 10-fold improvement; +++ indicating >10-fold improvement)
NLCEKASKTWSGNCGNTKHCDNQCKNWEGAAHGACHVRNGKHKCFCYFNC (Defensin like) [L6-70]	+ (key: + indicating 1- to 5-fold improvement compared to DmAMP1; ++ indicating >5- to 10-fold improvement; +++ indicating >10-fold improvement)	+ (key: + indicating 1- to 5-fold improvement compared to DmAMP1; ++ indicating >5- to 10-fold improvement; +++ indicating >10-fold improvement)	+++ (key: + indicating 1- to 5-fold improvement compared to DmAMP1; ++ indicating >5- to 10-fold improvement; +++ indicating >10-fold improvement)
NLCERASKTWSGNCGNTKHCDTQCKNWEGAKHGACHVRNGKHKCFCYFNC (Defensin like) [L6-83]	+ (key: + indicating 1- to 5-fold improvement compared to DmAMP1; ++ indicating >5- to 10-fold improvement; +++ indicating >10-fold improvement)	+ (key: + indicating 1- to 5-fold improvement compared to DmAMP1; ++ indicating >5- to 10-fold improvement; +++ indicating >10-fold improvement)	+++ (key: + indicating 1- to 5-fold improvement compared to DmAMP1; ++ indicating >5- to 10-fold improvement; +++ indicating >10-fold improvement)
NLCERASKTWSGNCGNTKHCDTQCKSWEGAAHGACHVRNGKHKCFCYFNC (Defensin like) [L6-27]	+ (key: + indicating 1- to 5-fold improvement compared to DmAMP1; ++ indicating >5- to 10-fold improvement; +++ indicating >10-fold improvement)	+++ (key: + indicating 1- to 5-fold improvement compared to DmAMP1; ++ indicating >5- to 10-fold improvement; +++ indicating >10-fold improvement)	+++ (key: + indicating 1- to 5-fold improvement compared to DmAMP1; ++ indicating >5- to 10-fold improvement; +++ indicating >10-fold improvement)
